The source of these data is paper PMC12459522, “Design and synthesis of N-substituted-2-butyl-4-chloro-1H-imidazole derivatives as potential ACE inhibitors: in vitro study, in-silico analysis, and a multifaceted CSD-supported crystallographic investigation” (RSC Advances, 2025).

This assay addresses ACE (Ovis aries, UniProt A0ACI6QSL6). The experiment in a line: In vitro colorimetric ACE inhibition assay (HHL substrate, hippuric acid release, 410 nm). The format is biochemical, sheep. Here is the method:
The ACE enzyme extract was preincubated with various concentrations of test compounds (4a–f) ranging from 250 nM to 25 μM, alongside the standard lisinopril (100–500 nM), for 10 minutes at 37 °C. The reaction was initiated by adding sodium borate buffer containing 0.3 M sodium chloride and 5 mM HHL, followed by a 30 minutes incubation at 37 °C. To terminate the reaction, 60 μL of 1 M HCl was added, which was subsequently followed by the addition of 120 μL of pyridine and 60 μL of benzene sulfonyl chloride for color development. The mixture was then cooled on ice for 5 minutes, and the resulting yellow color was measured spectrophotometrically at 410 nm. The reduction in HA concentration during the inhibition reaction, compared with that during the control reaction, was expressed as % inhibition, and the IC50 values were calculated via semilogarithmic plots. […] The IC50 values for the compounds and the standard lisinopril are presented in Table 1, and a bar graph comprising % inhibition is depicted in Fig. 2.
Sheep kidney acetone powder was prepared in the laboratory according to a modified protocol by Hector et al.[24] Fresh sheep kidney tissue was homogenized with prechilled acetone (1 : 3) and vacuum-filtered using a Buchner funnel. Re-extraction was performed until the solid residue turned colorless. This residue was air-dried and sifted to obtain a uniform powder, which was stored in an airtight container at 0–4 °C.
ACE was extracted from the prepared acetone powder as described by Jimsheena et al.[25] One gram of acetone powder was extracted via 10 mL of sodium borate buffer (0.05 M, pH 8.2) containing 0.3 M sodium chloride and 0.5% Triton X-100 at 4 °C for 18 hours. This extract was later centrifuged at 15 000g for 60 minutes at 4 °C. The supernatant was collected and dialyzed against the same buffer without Triton X-100 (3 L, the buffer was changed 3 times) for 24 hours. This extract was stored at −20 °C until further use. The specific activity was 0.8234 units per mg of protein.
ACE activity was calculated by measuring the release of hippuric acid (HA) from the substrate hippuryl-histidyl-leucine (HHL). One unit of ACE activity is defined as the amount of enzyme that releases 1 μmol of HA per minute at 37 °C and pH 8.2. The ACE enzyme extract was preincubated with different concentrations of the test compounds (250 nM to 25 μM) and a standard drug solution (lisinopril, 100–500 nM) for 10 minutes at 37 °C. The reaction was initiated by the addition of sodium borate buffer (0.05 M, pH 8.2) containing 0.3 M sodium chloride and 5 mM HHL. The mixture was incubated at 37 °C for 30 minutes, followed by the addition of 60 μL of 1 M HCl to stop the reaction. This was followed by the addition of 120 μL of pyridine and 60 μL of […] sulfonyl chloride (BSC) for color development. The mixture was mixed gently and cooled on ice for 5 minutes. The yellow color developed was measured spectrophotometrically at 410 nm.[25] The reduced HA concentration in the inhibition reaction compared with the control reaction is expressed as % inhibition, which was calculated as:% inhibition = 100 − (Atest/Acontrol) × 100,where Atest = absorbance of the test reaction and Acontrol = absorbance of the control reaction.

The mark [1] stands for this setting: sheep kidney ACE extract, HHL substrate, 37 °C, pH 8.2, read-out: IC50 against the ACE.

Read-outs that look alike come from different tables or passages of the source.

ACE, sequence (A0ACI6QSL6 entry or part of it): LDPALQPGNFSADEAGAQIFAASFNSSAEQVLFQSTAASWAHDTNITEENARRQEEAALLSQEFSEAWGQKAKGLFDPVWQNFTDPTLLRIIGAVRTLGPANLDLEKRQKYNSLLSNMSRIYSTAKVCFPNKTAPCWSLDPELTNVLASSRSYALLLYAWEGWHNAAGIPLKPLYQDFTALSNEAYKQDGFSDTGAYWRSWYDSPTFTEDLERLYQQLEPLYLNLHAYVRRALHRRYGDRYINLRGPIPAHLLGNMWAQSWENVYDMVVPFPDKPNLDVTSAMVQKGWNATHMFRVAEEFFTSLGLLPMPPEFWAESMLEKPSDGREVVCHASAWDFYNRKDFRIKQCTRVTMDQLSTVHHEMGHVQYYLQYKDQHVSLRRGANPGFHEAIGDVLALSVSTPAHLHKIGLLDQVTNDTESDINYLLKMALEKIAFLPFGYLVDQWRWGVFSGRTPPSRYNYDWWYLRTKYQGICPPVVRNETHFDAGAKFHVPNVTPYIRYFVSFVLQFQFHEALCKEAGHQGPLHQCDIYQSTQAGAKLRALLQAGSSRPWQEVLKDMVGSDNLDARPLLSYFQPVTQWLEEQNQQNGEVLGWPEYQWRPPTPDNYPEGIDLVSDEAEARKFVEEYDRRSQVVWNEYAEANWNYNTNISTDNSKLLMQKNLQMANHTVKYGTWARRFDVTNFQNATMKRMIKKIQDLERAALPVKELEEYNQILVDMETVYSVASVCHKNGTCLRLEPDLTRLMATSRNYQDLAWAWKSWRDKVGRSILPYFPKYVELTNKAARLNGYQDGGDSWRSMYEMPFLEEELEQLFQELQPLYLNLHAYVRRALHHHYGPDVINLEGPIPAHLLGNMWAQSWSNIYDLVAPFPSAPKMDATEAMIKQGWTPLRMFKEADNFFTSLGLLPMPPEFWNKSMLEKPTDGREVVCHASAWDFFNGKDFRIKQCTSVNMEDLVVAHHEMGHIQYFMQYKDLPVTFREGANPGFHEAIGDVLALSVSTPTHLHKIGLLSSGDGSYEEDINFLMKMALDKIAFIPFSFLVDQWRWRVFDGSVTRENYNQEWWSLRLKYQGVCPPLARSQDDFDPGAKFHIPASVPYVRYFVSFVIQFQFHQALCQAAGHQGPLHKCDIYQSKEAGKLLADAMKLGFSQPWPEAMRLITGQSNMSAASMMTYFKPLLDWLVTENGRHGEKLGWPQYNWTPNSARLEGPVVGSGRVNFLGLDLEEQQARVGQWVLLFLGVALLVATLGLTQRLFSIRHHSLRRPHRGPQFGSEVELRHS

One may read the IC50 as the concentration needed to halve the response being measured. Consider `CCCCc1nc(Cl)c(CO)n1CC(O)c1ccc([N+](=O)[O-])cc1` (stereo not shown) [4b, 2-(2-Butyl-4-chloro-5-(hydroxymethyl)-1H-imidazol-1-yl)-1-(4-nitrophenyl)ethan-1-ol], for which the half-inhibitory concentration (IC50) under setting [1] came out at 1310 ± 26 nM.

`NCCCC[C@H](N[C@@H](CCc1ccccc1)C(=O)O)C(=O)N1CCC[C@H]1C(=O)O` [Lisinopril, reference compound]: the midpoint of inhibition, the IC50, lay at 300 ± 135 nM.

Take “2-(2-Butyl-4-chloro-5-(hydroxymethyl)-1H-imidazol-1-yl)-1-(naphthalen-1-yl)ethan-1-ol [4d]”: the IC50 under setting [1] came out at 2120 ± 15 nM.

For `CCCCc1nc(Cl)c(CO)n1CC(O)c1ccc(OC)cc1` (stereo not shown) [4a, 2-(2-Butyl-4-chloro-5-(hydroxymethyl)-1H-imidazol-1-yl)-1-(4-methoxyphenyl)ethan-1-ol], the IC50 under setting [1] turned out to be 2470 ± 102 nM.

Consider `CCCCc1nc(Cl)c(CO)n1CC(O)c1ccc(C)cc1` (stereo not shown) [4c, 2-(2-Butyl-4-chloro-5-(hydroxymethyl)-1H-imidazol-1-yl)-1-(p-tolyl)ethan-1-ol], for which the IC50 under setting [1] was 1560 ± 65 nM.

As to `CCCCc1nc(Cl)c(CO)n1CC(O)c1ccc(Cl)cc1` (stereo not shown) [4e, 2-(2-Butyl-4-chloro-5-(hydroxymethyl)-1H-imidazol-1-yl)-1-(4-chlorophenyl)ethan-1-ol], the half-maximal inhibitory concentration (IC50) under setting [1] came out at 4890 ± 68 nM.

For `CCCCc1nc(Cl)c(CO)n1CC(O)c1ccc(F)cc1` (stereo not shown) [4f, 2-(2-Butyl-4-chloro-5-(hydroxymethyl)-1H-imidazol-1-yl)-1-(4-fluorophenyl)ethan-1-ol], the IC50 under setting [1] turned out to be 7570 ± 85 nM.
